Data published in patent publication US20210252104A1, “ANTIBACTERIAL PEPTIDE MONOMERS AND COMBINATIONS FOR CO-THERAPY” (ARREVUS, INC., priority 2018, published 2021).
≈ marks a conversion by molar mass, not a printed value. Like-named read-outs stand apart in the source and are kept apart here. Positions of bridges follow the written chain, without caps; N, C: chain ends. Non-standard residues stand in square brackets, D forms with d. Residues, ends and D or L forms follow the SMILES beside them. Chains are numbered I, II in the order given. *: point of attachment. X2 = CN(C)C(=N[C@@H](CCCNC(=N)N)C(=O)*)N(C)C; aThr = C[C@H](O)[C@H](N)C(=O)O; Ac6c = NC1(C(=O)O)CCCCC1; Dab = NCC[C@H](N)C(=O)O; Nva = CCC[C@H](N)C(=O)O; Pentanoyl = CCCCC(=O)*; Butyryl = CCCC(=O)*; NHNH2 = NN*

How the values were obtained:
K. pneumoniae K97/09 [1] = assay: FIC checkerboard assay (combinations); assay type: cell-based; conditions: for Effect of combining antimicrobials on MIC: K97/09, with imipenem or colistin
[2] = test system: A. baumannii strain (BAA-1605); assay: FIC checkerboard assay (combinations); assay type: cell-based; conditions: with imipenem (or colistin)
K. pneumoniae K97/09 [3] = test system: K. pneumoniae K97/09
[4] = test system: Burkholderia pseudomallei 1026b; assay type: in vivo; conditions: for B. pseudomallei load in survivals (CFU/spleen) / total number of samples analyzed/samples with CFU > 10^8: day 62; for B. pseudomallei load in survivals (CFU/spleen): mean of samples with <10^8 CFU/spleen; for Number of deaths: every 6 h for 21 days, 10 mice, to day 62; for total number of samples analyzed/samples with CFU > 10^8: spleens
in vitro = conditions: rat, H-4-II-E cells (ATCC CRL-1548)
[5] = test system: Acinetobacter baumannii BAA-1805 (MACI)
[6] = test system: A. baumannii strain (BAA-1605); assay: microbe, parasite or virus in culture; assay type: cell-based

CCC[C@H](NC(=O)[C@H](CCC(=O)O)NC(=O)[C@@H](N)[C@H](C)O)C(=O)N[C@H](C(=O)N[C@@H](C)C(=O)N[C@@H](CC(C)C)C(=O)N[C@@H](CO)C(=O)N[C@@H](CCCNC(=N)N)C(=O)NC1(C(N)=O)CCCCC1)C(C)C [Allo-aca] (H-[aThr]E[Nva]VALSR[Ac6c]-NH2)
Effect of combining antimicrobials on MIC (K. pneumoniae K97/09 [1]): failed to exert any improvement in the MIC values | Effect of combining antimicrobials on MIC [2]: failed to exert any improvement in the MIC values | MIC (K. pneumoniae K97/09 [3]; K97/09): > 256 µg/mL

CC(C)(O/N=C(\C(=O)N[C@@H]1C(=O)N2C(C(=O)[O-])=C(C[n+]3ccccc3)CS[C@H]12)c1csc(N)n1)C(=O)O [Ceftazidime]
Median survival (days post-challenge) ([4]; Ceftazidime 150 mg/kg ip): 56.5 days post-challenge | B. pseudomallei load in survivals (CFU/spleen) ([4]; Ceftazidime 150 mg/kg ip): 2.6 × 10^5 CFU/spleen | Number of deaths ([4]; Ceftazidime 150 mg/kg ip): 6 | total number of samples analyzed/samples with CFU > 10^8 ([4]; Ceftazidime 150 mg/kg ip): 4/1 | Median survival (days post-challenge) ([4]; Ceftazidime 300 mg/kg ip): (>50% survival) | B. pseudomallei load in survivals (CFU/spleen) ([4]; Ceftazidime 300 mg/kg ip): 2.4 × 10^5 CFU/spleen | Number of deaths ([4]; Ceftazidime 300 mg/kg ip): 3 | total number of samples analyzed/samples with CFU > 10^8 ([4]; Ceftazidime 300 mg/kg ip): 3/1 | Survival rate at the 62-day endpoint ([4]; ceftazidime monotherapy 150 mg/kg): 40% | Survival rate at the 62-day endpoint ([4]; ceftazidime monotherapy 300 mg/kg): 70%

CCCC(=O)N[C@@H](CCCNC(=N)N)C(=O)N1CCC[C@H]1C(=O)N[C@@H](CC(=O)O)C(=O)N[C@@H](CCCCN)C(=O)N1CCC[C@H]1C(=O)N[C@@H](CCCNC(=N)N)C(=O)N1CCC[C@H]1C(=O)N[C@@H](Cc1ccc(O)cc1)C(=O)N[C@@H](CC(C)C)C(=O)N1CCC[C@H]1C(=O)N[C@@H](CCCNC(=N)N)C(=O)N1CCC[C@H]1C(=O)N[C@@H](CCCNC(=N)N)C(=O)N1CCC[C@H]1C(=O)N1CCC[C@H]1C(=O)N[C@@H](CCCNC(=N)N)C(=O)N1CCC[C@H]1C(=O)N[C@H](C(=O)N[C@@H](CCCNC(=N)N)C(N)=O)C(C)C [Example 3, Bu-RPDKPRPYLPRPRPPRPVR-NH2] (Butyryl-RPDKPRPYLPRPRPPRPVR-NH2)
MIC (K. Pneumoniae ATCC 13883): 2.2 ± 0.4 µM (≈ 5.32 µg/mL) | MIC (E. Coli ATCC 29222): 6.5 ± 2.6 µM (≈ 15.7 µg/mL) | MIC (A. Baumannii ATCC 19606): >100 µM | MIC (P. aeruginosa ATCC 47085): 96.3 ± 3.2 µM (≈ 233 µg/mL)

CCCCC(=O)N[C@@H](CCCNC(=N)N)C(=O)N1CCC[C@H]1C(=O)N[C@@H](CC(=O)O)C(=O)N[C@@H](CCCCN)C(=O)N1CCC[C@H]1C(=O)N[C@@H](CCCNC(=N)N)C(=O)N1CCC[C@H]1C(=O)N[C@@H](Cc1ccc(O)cc1)C(=O)N[C@@H](CC(C)C)C(=O)N1CCC[C@H]1C(=O)N[C@@H](CCCNC(=N)N)C(=O)N1CCC[C@H]1C(=O)N[C@@H](CCCNC(=N)N)C(=O)N1CCC[C@H]1C(=O)N1CCC[C@H]1C(=O)N[C@@H](CCCNC(=N)N)C(=O)N1CCC[C@H]1C(=O)N[C@H](C(=O)N[C@@H](CCCNC(=N)N)C(N)=O)C(C)C [Example 4, Va-RPDKPRPYLPRPRPPRPVR-NH2] (Pentanoyl-RPDKPRPYLPRPRPPRPVR-NH2)
MIC (K. Pneumoniae ATCC 13883): 2.1 ± 0.0 µM (≈ 5.11 µg/mL) | MIC (E. Coli ATCC 29222): 5.6 ± 1.8 µM (≈ 13.6 µg/mL) | MIC (A. Baumannii ATCC 19606): >100 µM | MIC (P. aeruginosa ATCC 47085): 82.0 ± 5.0 µM (≈ 200 µg/mL)

CC(C)C[C@H](NC(=O)[C@H](Cc1ccc(O)cc1)NC(=O)[C@@H]1CCCN1C(=O)[C@H](CCCNC(=N)N)NC(=O)[C@@H]1CCCN1C(=O)[C@H](CCCCN)NC(=O)[C@H](CC(=O)O)NC(=O)[C@@H]1CCCN1C(=O)[C@H](CCCNC(=N)N)N=C(N(C)C)N(C)C)C(=O)N1CCC[C@H]1C(=O)N[C@@H](CCCNC(=N)N)C(=O)N1CCC[C@H]1C(=O)N[C@@H](CCCNC(=N)N)C(=O)N1CCC[C@H]1C(=O)N1CCC[C@H]1C(=O)N[C@@H](CCCNC(=N)N)C(=O)N1CCC[C@H]1C(=O)N[C@H](C(=O)N[C@@H](CCCNC(=N)N)C(N)=O)C(C)C [Example 5, Gu-RPDKPRPYLPRPRPPRPVR-NH2] (X2-PDKPRPYLPRPRPPRPVR-NH2; N-terminus assumed)
MIC (K. Pneumoniae ATCC 13883): 1.5 ± 0.4 µM (≈ 3.67 µg/mL) | MIC (E. Coli ATCC 29222): 5.8 ± 2.2 µM (≈ 14.2 µg/mL) | MIC (A. Baumannii ATCC 19606): >100 µM | MIC (P. aeruginosa ATCC 47085): 64.7 ± 2.1 µM (≈ 158 µg/mL)

CC(C)C[C@H](NC(=O)[C@H](Cc1ccc(O)cc1)NC(=O)[C@@H]1CCCN1C(=O)[C@H](CCCNC(=N)N)NC(=O)[C@@H]1CCCN1C(=O)[C@H](CCCCN)NC(=O)[C@H](CC(=O)O)NC(=O)[C@@H]1CCCN1C(=O)[C@H](CCCNC(=N)N)NC(=O)C1(N)CCCCC1)C(=O)N1CCC[C@H]1C(=O)N[C@@H](CCCNC(=N)N)C(=O)N1CCC[C@H]1C(=O)N[C@@H](CCCNC(=N)N)C(=O)N1CCC[C@H]1C(=O)N1CCC[C@H]1C(=O)N[C@@H](CCCNC(=N)N)C(=O)N1CCC[C@H]1C(=O)N[C@H](C(=O)N[C@@H](CCCNC(=N)N)C(=O)O)C(C)C [Example 6, Chex-RPDKPRPYLPRPRPPRPVR-OH] (H-[Ac6c]RPDKPRPYLPRPRPPRPVR-OH)
MIC (K. Pneumoniae ATCC 13883): 2.0 ± 0.1 µM (≈ 4.95 µg/mL) | CC50 (in vitro): 48.1 ± 3.4 µM | MIC (E. Coli ATCC 29222): 6.7 ± 1.3 µM (≈ 16.6 µg/mL) | MIC (A. Baumannii ATCC 19606): >100 µM | MIC (P. aeruginosa ATCC 47085): >100 µM

CC(C)C[C@H](NC(=O)[C@H](Cc1ccc(O)cc1)NC(=O)[C@@H]1CCCN1C(=O)[C@H](CCCNC(=N)N)NC(=O)[C@@H]1CCCN1C(=O)[C@H](CCCCN)NC(=O)[C@H](CC(=O)O)NC(=O)[C@@H]1CCCN1C(=O)[C@H](CCCNC(=N)N)NC(=O)C1(N)CCCCC1)C(=O)N1CCC[C@H]1C(=O)N[C@@H](CCCNC(=N)N)C(=O)N1CCC[C@H]1C(=O)N[C@@H](CCCNC(=N)N)C(=O)N1CCC[C@H]1C(=O)N1CCC[C@H]1C(=O)N[C@@H](CCCNC(=N)N)C(=O)N1CCC[C@H]1C(=O)N[C@H](C(=O)N[C@@H](CCCNC(=N)N)C(=O)NN)C(C)C [Example 7, Chex-RPDKPRPYLPRPRPPRPVR-NH-NH2] (H-[Ac6c]RPDKPRPYLPRPRPPRPVR-NHNH2; N-terminus assumed)
MIC (K. Pneumoniae ATCC 13883): 1.7 ± 0.1 µM (≈ 4.23 µg/mL) | MIC (E. Coli ATCC 29222): 4.0 ± 1.5 µM (≈ 9.96 µg/mL) | MIC (A. Baumannii ATCC 19606): 52.5 ± 9.5 µM (≈ 131 µg/mL) | MIC (P. aeruginosa ATCC 47085): 28.9 ± 2.7 µM (≈ 72 µg/mL)

Ac-RPDKPRPYLPRPRPPRPVR-NH2 [Example 2, Ac-RPDKPRPYLPRPRPPRPVR-NH2]
MIC (K. Pneumoniae ATCC 13883): 2.0 ± 0.2 µM | MIC (E. Coli ATCC 29222): 3.6 ± 0.1 µM | MIC (A. Baumannii ATCC 19606): >100 µM | MIC (P. aeruginosa ATCC 47085): >100 µM

I: H-[Ac6c]RPDKPRPYLGRPRPPRPVR[Dab]-NH2 / II: H-[Ac6c]RPDKPRPYLGRPRPPRPVR (amide I:21-II:C) [Gly11, (H-Chex-Arg-Pro-Asp-Lys-Pro-Arg-Pro-Tyr-Leu-Gly-Arg-Pro-Arg-Pro-Pro-Arg-Pro-Val-Arg)2-Dab-NH2]
MACI MIC ([5]; Acinetobacter baumannii (MACI)): >256 µg/mL | Effect of combining antimicrobials on MIC (K. pneumoniae K97/09 [1]): failed to exert any improvement in the MIC values | Effect of combining antimicrobials on MIC [2]: failed to exert any improvement in the MIC values | KPC MIC (K. pneumoniae K97/09 [3]; K97/09): >256 µg/mL

I: H-[Ac6c]RPDKPRPYLPRPRPPRPVR[Dab]-NH2 / II: H-[Ac6c]RPDKPRPYLPRPRPPRPVR (amide I:21-II:C; C-terminus assumed) [Example A3-APO, (H-Chex-Arg-Pro-Asp-Lys-Pro-Arg-Pro-Tyr-Leu-Pro-Arg-Pro-Arg-Pro-Pro-Arg-Pro-Val-Arg)2-Dab]
MACI MIC ([5]; BAA-1805): 32 to 64 µg/mL | KPC MIC (K. pneumoniae K97/09 [3]; K97/09): 32 to 64 µg/mL

colistin
MACI MIC ([5]; Acinetobacter baumannii (MACI)): <0.5 µg/mL | MIC [6]: < 0.5 µg/mL | ΣFIC (K. pneumoniae K97/09 [1]): 0.08 | KPC MIC (K. pneumoniae K97/09 [3]): 64 µg/mL | MIC (K. pneumoniae K97/09 [3]): 64 µg/mL
